ChEMBL document CHEMBL1275478, “Enantioselective and nonlinear intestinal absorption of eflornithine in the rat” (Antimicrob Agents Chemother, 2008)

Legend:
Assay type in all cases: ADME, organism-based
[1] = Oral bioavailability in Sprague-Dawley rat at 750 mg/kg, po; conditions: in vivo, pooled result: one value given for 3 cell lines, strains, targets or settings
[2] = Central volume of distribution in Sprague-Dawley rat at 375 mg/kg, iv administered as single infusion; parameters: dose 375 mg/kg, route intravenous; conditions: in vivo
[3] = Oral bioavailability in Sprague-Dawley rat at 3000 mg/kg, po; conditions: in vivo
[4] = Clearance in Sprague-Dawley rat at 1000 mg/kg, iv administered as 3 mins short-term infusion; parameters: dose 1000 mg/kg, route intravenous; conditions: in vivo
[5] = Clearance in Sprague-Dawley rat at 375 mg/kg, iv administered as single infusion; parameters: dose 375 mg/kg, route intravenous; conditions: in vivo
[6] = Central volume of distribution in Sprague-Dawley rat at 1000 mg/kg, iv administered as 3 mins short-term infusion; parameters: dose 1000 mg/kg, route intravenous; conditions: in vivo
Rattus norvegicus [7] = test: Intercompartmental clearance in Sprague-Dawley rat assessed as L-eflornithine at 375 mg/kg, iv administered as single infusion; parameters: dose 375 mg/kg, route intravenous; conditions: in vivo
Rattus norvegicus [8] = test: Intercompartmental clearance in Sprague-Dawley rat assessed as D-eflornithine at 1000 mg/kg, iv administered as 3 mins short-term infusion; parameters: dose 1000 mg/kg, route intravenous; conditions: in vivo, 0.05 h
Rattus norvegicus [9] = test: Intercompartmental clearance in Sprague-Dawley rat assessed as D-eflornithine at 375 mg/kg, iv administered as single infusion; parameters: dose 375 mg/kg, route intravenous; conditions: in vivo
Rattus norvegicus [10] = test: Mean transit time in Sprague-Dawley rat assessed as D-eflornithine at 750 to 3000 mg/kg, po; parameters: dose 750-3000 mg/kg, route oral; conditions: in vivo
Rattus norvegicus [11] = test: Intercompartmental clearance in Sprague-Dawley rat assessed as L-eflornithine at 1000 mg/kg, iv administered as 3 mins short-term infusion; parameters: dose 1000 mg/kg, route intravenous; conditions: in vivo, 0.05 h
Rattus norvegicus [12] = test: Mean transit time in Sprague-Dawley rat assessed as L-eflornithine at 750 to 3000 mg/kg, po; parameters: dose 750-3000 mg/kg, route oral; conditions: in vivo

Compound | bioavailability [1] | Vd [2] | bioavailability [3] | clearance [4] | clearance [5] | Vd [6] | CL (Rattus norvegicus [7]) | CL (Rattus norvegicus [8]) | CL (Rattus norvegicus [9]) | MTT (Rattus norvegicus [10]) | CL (Rattus norvegicus [11]) | MTT (Rattus norvegicus [12])
NCCC[C@](N)(C(=O)O)C(F)F [EFLORNITHINE, (S)-] | 41% | 0.404 L/kg | 47% | 14.5 mL/min/kg | 14.5 mL/min/kg | 0.404 L/kg |  |  |  |  |  | 
NCCCC(N)(C(=O)O)C(F)F (racemic) [EFLORNITHINE] | 62.3% |  | 82.7% |  |  |  | 1.2 mL/min/kg | 1.2 mL/min/kg | 1.2 mL/min/kg | 88 min | 1.2 mL/min/kg | 88 min
NCCC[C@@](N)(C(=O)O)C(F)F [D-EFLORNITHINE] |  |  |  |  | 12.6 mL/min/kg | 0.401 L/kg |  |  |  |  |  | 
